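Assay format: 96-well plates, 48-hour exposure. TGI: concentration producing complete growth inhibition.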
Key:
Test in all cases: inhibition of tumour cell growth, NCI panel, 48 h
[1] = test system: OVCAR-5 ovarian
[2] = test system: CCRF-CEM leukemia
[3] = test system: SF-268 CNS
[4] = test system: IGROV1 ovarian
[5] = test system: SK-MEL-28 melanoma
[6] = test system: LOX IMVI melanoma
[7] = test system: CAKI-1 renal
[8] = test system: HT29 colon
[9] = test system: A498 renal
[10] = test system: MOLT-4 leukemia
[11] = test system: HOP-92 NSCLC
[12] = test system: NCI-H23 lung
[13] = test system: SF-295 CNS
[14] = test system: M14 melanoma
[15] = test system: UACC-62 melanoma
[16] = test system: SNB-75 CNS
[17] = test system: SN12C renal
[18] = test system: SK-MEL-5 melanoma
[19] = test system: NCI-H226 lung
[20] = test system: MDA-N

Row | Compound | TGI [1] [µM] | TGI [2] [µM] | TGI [3] [µM] | TGI [4] [µM] | TGI [5] [µM] | TGI [6] [µM] | TGI [7] [µM] | TGI [8] [µM] | TGI [9] [µM] | TGI [10] [µM] | TGI [11] [µM] | TGI [12] [µM] | TGI [13] [µM] | TGI [14] [µM] | TGI [15] [µM] | TGI [16] [µM] | TGI [17] [µM] | TGI [18] [µM] | TGI [19] [µM] | TGI [20] [µM]
1 | NC(=O)N/N=C(/Cc1nc2ccc(C(=O)c3ccccc3)cc2[nH]c1=O)C(=O)Nc1ccc(C(F)(F)F)cc1[N+](=O)[O-] | > 100 | > 100 | > 100 | > 100 | > 100 | > 100 | > 100 | > 100 | > 100 | > 100 | > 100 | > 100 | > 100 | > 100 | > 100 | 97.3 | > 100 | > 100 | – | –
2 | O=C(N/N=C/c1ccccc1O)c1ccccc1Nc1ccccc1C(=O)N/N=C/c1ccccc1O | > 100 | > 100 | 2.28 | > 100 | 0.865 | > 100 | > 100 | 4.99 | > 100 | – | – | > 100 | > 100 | 6.35 | > 100 | > 100 | – | 8.15 | 3.79 | > 100
3 | Cc1cc(=O)[nH]c(NNC(C#N)c2c(O)ccc3ccccc23)n1 (stereo unspecified) | 82.7 | > 100 | 40.7 | 23.4 | 68.3 | 22.4 | 22 | 88.4 | – | 48.6 | 79.6 | 20.5 | > 100 | 15.6 | 10.1 | 55.9 | 38.2 | 13 | 17.6 | –
4 | Clc1ccc(-c2ccc(-c3nnc(COc4ccc(OCc5nnc(-c6ccc(-c7ccc(Cl)cc7Cl)o6)o5)c(Cl)c4)o3)o2)c(Cl)c1 | > 100 | 67.1 | > 100 | > 100 | > 100 | > 100 | > 100 | > 100 | > 100 | 64.2 | – | > 100 | > 100 | > 100 | > 100 | – | > 100 | > 100 | > 100 | > 100
5 | O=C(CC(=O)N1N=C(N(c2ccccc2)c2ccccc2)CC1c1ccccc1)Nc1ccc(Cl)cc1 (stereo unspecified) | > 100 | > 100 | > 100 | > 100 | > 100 | – | > 100 | > 100 | – | > 100 | > 100 | > 100 | > 100 | > 100 | > 100 | > 100 | > 100 | > 100 | > 100 | –
6 | COC(=O)c1c[nH]c2c1-c1cc(C(=O)OCc3ccccc3)n(S(=O)(=O)c3ccc(C)cc3)c1C(=O)C2=O | 2.9 | > 33.3 | 2.27 | 0.955 | 0.244 | 0.375 | 2.65 | 0.418 | 3.16 | – | 1.29 | 0.32 | 0.312 | 0.289 | 0.363 | 0.389 | 0.481 | 0.262 | 0.889 | –
7 | O=[N+]([O-])C(=C1Nc2ccccc2N1)/C(Cl)=C(/Cl)N1CCOCC1 | > 100 | > 100 | 62.5 | – | > 100 | – | > 100 | > 100 | > 100 | > 100 | – | > 100 | > 100 | > 100 | > 100 | > 100 | > 100 | – | > 100 | > 100
8 | O=C(O)CN1CCN(CC(=O)N2CCN(C(=O)OCc3ccccc3)CC2)CCN(CC(=O)O)CCN(CC(=O)N2CCN(C(=O)OCc3ccccc3)CC2)CC1 | > 100 | > 100 | – | > 100 | > 100 | > 100 | > 100 | > 100 | > 100 | > 100 | > 100 | – | > 100 | > 100 | > 100 | > 100 | > 100 | > 100 | > 100 | –
9 | NC(=O)/C=c1/c2ccccc2n2nc3ccccc3c12 | 77.8 | > 100 | 47.5 | 35 | 33.9 | 19.7 | 82.5 | 29.8 | 79.4 | 7.69 | – | 64.1 | > 100 | 71.7 | 37 | – | 40.2 | > 100 | – | 35.6
10 | CC1(S)CC2C(CC1Sc1ccccc1)C2(C)C (stereo unspecified) | > 100 | > 100 | > 100 | > 100 | > 100 | – | – | > 100 | – | > 100 | > 100 | > 100 | > 100 | > 100 | – | > 100 | > 100 | > 100 | > 100 | –
